Reference: ChEMBL document CHEMBL1151532, “Oxa-prostanoid analogs. Identification of an orally effective, dual thromboxane receptor antagonist /thromboxane synthase inhibitor” (Bioorg Med Chem Lett, 1994)
“And” between values parts separate entries of the source, which are not always exact repeats. Identical values can stand only once.

Legend:
Thromboxane-A synthase = molecular target: T1, Thromboxane-A synthase (Homo sapiens, UniProt P24557); assay: In vitro inhibition against thromboxane synthase
T1 sequence (P24557 whole entry): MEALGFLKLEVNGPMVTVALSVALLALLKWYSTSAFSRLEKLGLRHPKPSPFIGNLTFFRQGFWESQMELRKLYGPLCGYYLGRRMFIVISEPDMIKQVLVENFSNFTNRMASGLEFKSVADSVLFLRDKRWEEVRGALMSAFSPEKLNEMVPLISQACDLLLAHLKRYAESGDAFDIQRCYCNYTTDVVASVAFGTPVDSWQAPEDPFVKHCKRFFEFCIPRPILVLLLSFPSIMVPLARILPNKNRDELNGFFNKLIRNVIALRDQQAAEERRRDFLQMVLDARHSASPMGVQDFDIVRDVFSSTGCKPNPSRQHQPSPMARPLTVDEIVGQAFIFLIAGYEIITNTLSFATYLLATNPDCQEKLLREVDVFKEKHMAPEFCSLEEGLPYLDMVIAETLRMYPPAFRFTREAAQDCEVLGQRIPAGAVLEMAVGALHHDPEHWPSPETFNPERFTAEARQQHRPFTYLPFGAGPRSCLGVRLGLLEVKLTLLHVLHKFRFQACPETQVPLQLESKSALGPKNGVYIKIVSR

[1] = In vitro thromboxane receptor antagonist against U-46619 induced aggregation of washed human platelets
Cavia porcellus = assay: Ex vivo inhibition of […] induced guinea pig platelet aggregation after 1 hr post oral administration at a dose of 10 mg/kg; Aggregation ratio = EC50 for drug/EC50 for control; assay type: functional

| Structure (SMILES) | IC50 (Thromboxane-A synthase) [µM] | other results |
| --- | --- | --- |
| O=C(O)CC/C=C\CC[C@@H]1[C@@H](c2cccnc2)OC[C@H]1OCc1ccc(-c2ccccc2)cc1 | 0.022 |  |
| O=C(O)CCC(CCCCNS(=O)(=O)c1ccc(Cl)cc1)CCCc1cccnc1 (stereo not given) |  | IC50 [1]: 0.018 µM; Aggregation ratio (Cavia porcellus): 24.5 |
| O=C(O)CC/C=C\CC[C@H]1[C@@H](OCc2ccc(-c3ccccc3)cc2)CO[C@@H]1c1cccnc1 (stereo in doubt; 5) | 0.017 |  |
| O=C(O)CC/C=C\CC[C@H]1[C@@H](OCc2ccc(-c3ccccc3)cc2)CO[C@@H]1c1cccnc1 (stereo in doubt; (-)) | 0.12 |  |
| O=C(O)CCCCO/N=C(/c1cccnc1)c1cccc(C(F)(F)F)c1 [RIDOGREL] |  | Aggregation ratio (Cavia porcellus): 4.4 |

The next lines start with results.

| IC50 (Thromboxane-A synthase) [µM] | Structure (SMILES) | other results |
| --- | --- | --- |
| 0.032 | O=C(O)CC/C=C\CC[C@H]1[C@@H](OCc2ccc(-c3ccccc3)cc2)CO[C@H]1c1cccnc1 |  |
| 0.065 | O=C(O)CC/C=C\CC[C@H]1[C@H](OCc2ccc(-c3ccccc3)cc2)CO[C@H]1c1cccnc1 |  |
| 0.0043 | O=C(O)CC/C=C\CC[C@H]1[C@@H](OCc2ccc(-c3ccccc3)cc2)CO[C@@H]1c1cccnc1 (stereo in doubt; (+)) | Aggregation ratio (Cavia porcellus; 10 mg/kg): >100 and 65.6 |
